The series in a line: Solubility of compound having Formula V in various media. Type of series: physicochemical. An excerpt: For example, the solubility of the compound having Formula V in some embodiments of the present composition is compared to that in water in Table 1.

What is called solubility is the dissolved amount per volume that the medium holds. For `Cc1ccc2c(NCC(O)(CC(C)(C)c3cc(F)cc4c3OCC4)C(F)(F)F)cccc2n1` (centres unmarked) [Compound Having Formula V], the solubility reads like this: (Medium: Water, pH 7) 0.2 µg/mL; (aqueous with cosolvent or surfactant or cyclodextrin, Medium: 1% Polysorbate 80) 12 µg/mL; (aqueous with cosolvent or surfactant or cyclodextrin, Medium: 10% PEG-400/1% polysorbate 80 (a composition of the present invention)) 12 µg/mL; (aqueous with cosolvent or surfactant or cyclodextrin, Medium: 25% PEG-40/1% polysorbate 80 (a composition of the present invention)) 18 µg/mL; (organic solvent or mixture, Medium: PEG-400) 5.6 µg/mL.
